Test results reported in BindingDB's records for doi:10.1021/jm800318d (Vertex Pharmaceuticals, 2008).

These compounds were tested against DNA gyrase A/A/B/B tetramer (Escherichia coli (strain K12), UniProt P0AES4+P0AES6) (assay: DNA Gyrase ATPase Assay).
CCNC(=O)Nc1nc2c(-n3cccn3)cc(-c3cccnc3)cc2[nH]1 [3-ethyl-1-[7-(1H-pyrazol-1-yl)-5-(pyridin-3-yl)-1H-1,3-benzodiazol-2-yl]urea] was tested, and the Ki was < 4 nM.
For CCNC(=O)Nc1nc2c(-n3cccn3)cc(-c3cncnc3)cc2[nH]1 [3-ethyl-1-[7-(1H-pyrazol-1-yl)-5-(pyrimidin-5-yl)-1H-1,3-benzodiazol-2-yl]urea], the Ki was < 4 nM.
With CCNC(=O)Nc1nc2cc(-c3ccn(C)c(=O)c3)cc(-c3ncccc3F)c2[nH]1 [3-ethyl-1-[7-(3-fluoropyridin-2-yl)-5-(1-methyl-2-oxo-1,2-dihydropyridin-4-yl)-1H-1,3-benzodiazol-2-yl]urea] the Ki was < 4 nM.
In the case of CCNC(=O)Nc1nc2cc(-c3cccnc3)cc(-c3ncccc3F)c2[nH]1 [3-ethyl-1-[7-(3-fluoropyridin-2-yl)-5-(pyridin-3-yl)-1H-1,3-benzodiazol-2-yl]urea], the Ki is reported as < 4 nM.
CCNC(=O)Nc1nc2cc(-c3cccnc3)cc(-c3ccccn3)c2[nH]1 [3-ethyl-1-[7-(pyridin-2-yl)-5-(pyridin-3-yl)-1H-1,3-benzodiazol-2-yl]urea] was tested, and the Ki was < 4 nM.
In the case of CCNC(=O)Nc1nc2cc(-n3cnc(C(=O)NC4CC4)c3)c(F)cc2[nH]1 [N-cyclopropyl-1-{2-[(ethylcarbamoyl)amino]-6-fluoro-1H-1,3-benzodiazol-5-yl}-1H-imidazole-4-carboxamide], the Ki is reported as < 4 nM.
With CCNC(=O)Nc1nc2c(-n3cccn3)cc(-n3cnc(C(=O)NC4CC4)c3)cc2[nH]1 [N-cyclopropyl-1-{2-[(ethylcarbamoyl)amino]-7-(1H-pyrazol-1-yl)-1H-1,3-benzodiazol-5-yl}-1H-imidazole-4-carboxamide] the Ki was < 4 nM.
With CCNC(=O)Nc1nc2c(-c3ccccn3)cc(-n3cnc(C(=O)NC4CC4)c3)cc2[nH]1 [N-cyclopropyl-1-{2-[(ethylcarbamoyl)amino]-7-(pyridin-2-yl)-1H-1,3-benzodiazol-5-yl}-1H-imidazole-4-carboxamide] the Ki was < 4 nM.
In the case of CCNC(=O)Nc1nc2cc(-c3cccnc3)cc(C(=O)OC)c2[nH]1 [methyl 2-[(ethylcarbamoyl)amino]-5-(pyridin-3-yl)-1H-1,3-benzodiazole-7-carboxylate], the Ki is reported as < 4 nM.
